Test results taken from patent EP1210336B1, “SUBSTITUTED BENZIMIDAZOLES AS NON-NUCLEOSIDE INHIBITORS OF REVERSE TRANSCRIPTASE” (THE UNITED STATES OF AMERICA, as represented by the …, priority 1999, dated 2001).

Legend:
Assay in all cases: Cytopathic cell killing assay, cross-resistance profile, infected MT-4 cells
NL4-3 (WT) = type: cell-based, HIV-1
Method in brief: (§1)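 XTT formazan absorbance (450 nm) after 6 days at 37°C measured survival of HIV-1-infected MT-4 cells treated with half-log compound dilutions in triplicate. Viruses were pre-titered to equivalent infection levels and used at an MOI killing all cells by day 6.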

HIV-1 variant V106A = type: cell-based
Method in brief: as §1

HIV-1 variant L74V = type: cell-based
Method in brief: as §1

HIV-1 variant V108I = type: cell-based
Method in brief: as §1

HIV-1 variant L100I = type: cell-based
Method in brief: as §1

[1] = system: HIV-1 isolate 4xAZT/Y181C; type: cell-based
Method in brief: as §1

HIV-1 isolate 4xAZT = type: cell-based
Method in brief: as §1

HIV-1 variant A98G = type: cell-based
Method in brief: as §1

HIV-1 variant Y188C = type: cell-based
Method in brief: as §1

HIV-1 variant K101E = type: cell-based
Method in brief: as §1

HIV-1 variant Y181C = type: cell-based; conditions: isolate Y181C
Method in brief: as §1

HIV-1 variant V179D = type: cell-based; conditions: isolate V179D
Method in brief: as §1

HIV-1 variant K103N = type: cell-based; conditions: for EC50: isolate K103N
Method in brief: as §1

[2] = Human immunodeficiency virus 1, NL43, MT4, Table 4, isolate NL4-3 (WT)
[3] = Human immunodeficiency virus 1, NL43, MT4, Table 8, isolate N1.43
[4] = Human immunodeficiency virus 1, NL43, MT4, Table 9, isolate NL4.3
[5] = Human immunodeficiency virus 1, MT4, Table 4, isolate V106A
[6] = Human immunodeficiency virus 1, MT4, Table 8, isolate V 106A
[7] = Human immunodeficiency virus 1, MT4, Table 9, isolate V106A
[8] = Human immunodeficiency virus 1, MT4, Table 4, isolate L74V
[9] = Human immunodeficiency virus 1, MT4, Table 8, isolate 1.74V
[10] = Human immunodeficiency virus 1, MT4, Table 9, isolate 1.74 V
[11] = Human immunodeficiency virus 1, MT4, Table 4, isolate V108I
[12] = Human immunodeficiency virus 1, MT4, Table 8, isolate V1081
[13] = Human immunodeficiency virus 1, MT4, Table 9, isolate V1081
[14] = Human immunodeficiency virus 1, MT4, Table 4, isolate L1001
[15] = Human immunodeficiency virus 1, MT4, Table 8, isolate 1.1001
[16] = Human immunodeficiency virus 1, MT4, Table 9, isolate L1001
[17] = Human immunodeficiency virus 1, MT4, Table 4, isolate 4xAZT/Y181C
[18] = Human immunodeficiency virus 1, MT4, Table 8, isolate 4XAZT /Y181C
[19] = Human immunodeficiency virus 1, MT4, Table 4, isolate 4xAZT
[20] = Human immunodeficiency virus 1, MT4, Table 8, isolate 4XAZT
[21] = Human immunodeficiency virus 1, MT4, Table 4, isolate A98G
[22] = Human immunodeficiency virus 1, MT4, Table 8, isolate A9SG
[23] = Human immunodeficiency virus 1, MT4, Table 9, isolate A98G
[24] = Human immunodeficiency virus 1, MT4, Table 4, isolate Y188C
[25] = Human immunodeficiency virus 1, MT4, Table 8, isolate Y 188C
[26] = Human immunodeficiency virus 1, MT4, Table 9, isolate Y188C
[27] = Human immunodeficiency virus 1, MT4, Table 4, isolate K101E
[28] = Human immunodeficiency virus 1, MT4, Table 8, isolate K101E
[29] = Human immunodeficiency virus 1, MT4, Table 9, isolate KIOIE
[30] = Human immunodeficiency virus 1, MT4, Table 4
[31] = Human immunodeficiency virus 1, MT4, Table 9
[32] = Human immunodeficiency virus 1, MT4, Table 10 (values in µM)
[33] = Human immunodeficiency virus 1, MT4, Table 8

Cc1cccc2c1nc(-c1c(F)cccc1F)n2Cc1c(F)cccc1F [compound 33, 1-(2,6-difluorobenzyl)-2-(2,6-difluorophenyl)-4-methylbenzimidazole]
EC50 (NL4-3 (WT); [2]): 0.5 µM | EC50 (NL4-3 (WT); [3]): 0.5 µM | EC50 (NL4-3 (WT); [4]): 0.5 µM | EC50 (NL4-3 (WT); Human immunodeficiency virus 1, NL43, MT4, Table 10 (values in µM), isolate NL4-3 (WT)): 0.5 µM | -fold better in the inhibition of the various viral isolates than the des-methyl analog 26 (NL4-3 (WT); various viral isolates of Table 4): 3- to 4 fold | EC50 (HIV-1 variant V106A; [5]): 20 µM | EC50 (HIV-1 variant V106A; [6]): > 10 µM | EC50 (HIV-1 variant V106A; [7]): > 10 µM | EC50 (HIV-1 variant L74V; [8]): 0.1 µM | EC50 (HIV-1 variant L74V; [9]): 0.3 µM | EC50 (HIV-1 variant L74V; [10]): 0.3 µM | EC50 (HIV-1 variant V108I; [11]): 2.8 µM | EC50 (HIV-1 variant V108I; [12]): 2.8 µM | EC50 (HIV-1 variant V108I; [13]): 2.8 µM | EC50 (HIV-1 variant V108I; Human immunodeficiency virus 1, MT4, Table 10 (values in µM), isolate V108l): 2.8 µM | EC50 (HIV-1 variant L100I; [14]): 0.3 µM | EC50 (HIV-1 variant L100I; [15]): 0.3 µM | EC50 (HIV-1 variant L100I; [16]): 0.3 µM | EC50 (HIV-1 variant L100I; Human immunodeficiency virus 1, MT4, Table 10 (values in µM), isolate L1001): 0.3 µM | EC50 [1, 17]: 3.5 µM | EC50 [1, 18]: 3.5 µM | EC50 (HIV-1 isolate 4xAZT; [19]): 0.1 µM | EC50 (HIV-1 isolate 4xAZT; [20]): 0.1 µM | EC50 (HIV-1 isolate 4xAZT; Human immunodeficiency virus 1, MT4, Table 9, isolate 4XAZT): 0.1 µM | EC50 (HIV-1 variant A98G; [21]): 1.4 µM | EC50 (HIV-1 variant A98G; [22]): 27 µM | EC50 (HIV-1 variant A98G; [23]): 2.7 µM | EC50 (HIV-1 variant Y188C; [24]): 2.3 µM | EC50 (HIV-1 variant Y188C; [25]): 3 µM | EC50 (HIV-1 variant Y188C; [26]): 3 µM | EC50 (HIV-1 variant Y188C; Human immunodeficiency virus 1, MT4, Table 10 (values in µM), isolate Y188C): 2.3 µM | EC50 (HIV-1 variant K101E; [27]): 16.7 µM | EC50 (HIV-1 variant K101E; [28]): > 10 µM | EC50 (HIV-1 variant K101E; [29]): > 10 µM | EC50 (HIV-1 variant K101E; Human immunodeficiency virus 1, MT4, Table 10 (values in µM), isolate K101E): 16.7 µM | EC50 (HIV-1 variant Y181C; [30]): 6 µM | EC50 (HIV-1 variant Y181C; [31]): 4.3 µM | EC50 (HIV-1 variant Y181C; [32]): 6 µM | EC50 (HIV-1 variant V179D; [30]): 0.5 µM | EC50 (HIV-1 variant V179D; [33]): 0.7 µM | EC50 (HIV-1 variant V179D; [31]): 0.7 µM | EC50 (HIV-1 variant K103N; [30]): 8.1 µM | EC50 (HIV-1 variant K103N; [33]): > 20 µM | EC50 (HIV-1 variant K103N; [31]): > 20 µM | EC50 (HIV-1 variant K103N; [32]): 8.1 µM

Fc1cccc(F)c1C1SCc2nc3ccccc3n21 (centres unmarked) [TZB, 1-(2,6-difluorophenyl)-1H,3H-thiazolo[3,4-a]benzimidazole, reference compound]
EC50 (NL4-3 (WT); [2]): 1.7 µM | EC50 (NL4-3 (WT); [3]): 10 µM | EC50 (NL4-3 (WT); [4]): 1 µM | EC50 (HIV-1 variant V106A; [5]): > 20 µM | EC50 (HIV-1 variant V106A; [6]): 5.7 µM | EC50 (HIV-1 variant V106A; [7]): > 10 µM | EC50 (HIV-1 variant L74V; [8]): 0.7 µM | EC50 (HIV-1 variant L74V; [9]): 0.8 µM | EC50 (HIV-1 variant L74V; [10]): 0.5 µM | EC50 (HIV-1 variant V108I; [11]): 9.7 µM | EC50 (HIV-1 variant V108I; [12]): 3.9 µM | EC50 (HIV-1 variant V108I; [13]): 5.7 µM | EC50 (HIV-1 variant L100I; [14]): 12.2 µM | EC50 (HIV-1 variant L100I; [15]): 6.6 µM | EC50 (HIV-1 variant L100I; [16]): 6.6 µM | EC50 [1, 17]: 14.5 µM | EC50 [1, 18]: > 10 µM | EC50 ([1]; Human immunodeficiency virus 1, MT4, Table 9, isolate 4XAZT /Y181C): > 10 µM | EC50 (HIV-1 isolate 4xAZT; [19]): 1.5 µM | EC50 (HIV-1 isolate 4xAZT; [20]): 1.1 µM | EC50 (HIV-1 variant A98G; [21]): 17.7 µM | EC50 (HIV-1 variant A98G; [22]): 10 µM | EC50 (HIV-1 variant A98G; [23]): 10 µM | EC50 (HIV-1 variant Y188C; [24]): > 20 µM | EC50 (HIV-1 variant Y188C; [25]): > 20 µM | EC50 (HIV-1 variant Y188C; [26]): > 20 µM | EC50 (HIV-1 variant K101E; [27]): > 20 µM | EC50 (HIV-1 variant K101E; [28]): > 10 µM | EC50 (HIV-1 variant K101E; [29]): > 10 µM | EC50 (HIV-1 variant Y181C; [30]): 16.3 µM | EC50 (HIV-1 variant Y181C; [31]): > 10 µM | EC50 (HIV-1 variant V179D; [30]): 3.1 µM | EC50 (HIV-1 variant V179D; [33]): > 10 µM | EC50 (HIV-1 variant V179D; [31]): 3.9 µM | EC50 (HIV-1 variant K103N; [30]): > 20 µM | EC50 (HIV-1 variant K103N; [33]): > 10 µM | EC50 (HIV-1 variant K103N; [31]): > 20 µM | activity against the K103N mutation / isolate (HIV-1 variant K103N; result in words, cytopathic cell killing assay): ineffective
